Tests used:
TYK2 [1] = biological target: T1, TYK2 (Homo sapiens, UniProt P29597); assay: TYK2 protein degradation in NOMO-1 cells by immunoblotting; assay type: cell-based; set-up: endogenous in cells; conditions: NOMO-1 cells
Description: NOMO-1 cells were treated with CPD-155, CPD-157, and CPD-158 at 0.1, 1, 10, 100 and 1000 nM concentrations for 16 hours. […] Data shown that CPD-155, CPD-157, and CPD-158 are very potent at the reduction protein levels of TYK2.
MOLT-4 or NOMO-1 cells were cultured at 37° C. with 5% CO2 in RPMI 1640 Medium supplemented with 10% fetal bovine serum. Cells were authenticated using the short tandem repeat (STR) assays. Mycoplasma test results were negative.
Cultured cells were washed with cold PBS once and lysed in cold RIPA buffer supplemented with protease inhibitors and phosphatase inhibitors (Beyotime Biotechnology). The solutions were then incubated at 4° C. for 30 minutes with gentle agitation to fully lyse cells. Cell lysates were centrifuged at 13,000 rpm for 10 minutes at 4° C. and pellets were discarded. Total protein concentrations in the lysates were determined by BCA assays (Beyotime Biotechnology). Cell lysates were mixed with Laemmli loading buffer to 1× and heated at 99° C. for 5 min. Proteins were resolved on SDS-PAGE and visualized by chemiluminescence. Images were taken by a ChemiDoc MP Imaging system (Bio-Rad). Protein bands were quantitated using the accompanied software provided by Bio-Rad.

TYK2 [2] = biological target: T1, TYK2; assay: TYK2 protein degradation in MOLT-4 cells by immunoblotting; assay type: cell-based; set-up: endogenous in cells; host or cells: MOLT-4; conditions: MOLT-4 cells, 24 hours
Method in brief: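 Percent TYK2 degradation came from densitometry of chemiluminescent immunoblots of RIPA lysates. Before lysis, MOLT-4 cells had been treated for 24 h with each compound at 0.5 or 5 μM.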

T1 sequence (P29597 whole entry): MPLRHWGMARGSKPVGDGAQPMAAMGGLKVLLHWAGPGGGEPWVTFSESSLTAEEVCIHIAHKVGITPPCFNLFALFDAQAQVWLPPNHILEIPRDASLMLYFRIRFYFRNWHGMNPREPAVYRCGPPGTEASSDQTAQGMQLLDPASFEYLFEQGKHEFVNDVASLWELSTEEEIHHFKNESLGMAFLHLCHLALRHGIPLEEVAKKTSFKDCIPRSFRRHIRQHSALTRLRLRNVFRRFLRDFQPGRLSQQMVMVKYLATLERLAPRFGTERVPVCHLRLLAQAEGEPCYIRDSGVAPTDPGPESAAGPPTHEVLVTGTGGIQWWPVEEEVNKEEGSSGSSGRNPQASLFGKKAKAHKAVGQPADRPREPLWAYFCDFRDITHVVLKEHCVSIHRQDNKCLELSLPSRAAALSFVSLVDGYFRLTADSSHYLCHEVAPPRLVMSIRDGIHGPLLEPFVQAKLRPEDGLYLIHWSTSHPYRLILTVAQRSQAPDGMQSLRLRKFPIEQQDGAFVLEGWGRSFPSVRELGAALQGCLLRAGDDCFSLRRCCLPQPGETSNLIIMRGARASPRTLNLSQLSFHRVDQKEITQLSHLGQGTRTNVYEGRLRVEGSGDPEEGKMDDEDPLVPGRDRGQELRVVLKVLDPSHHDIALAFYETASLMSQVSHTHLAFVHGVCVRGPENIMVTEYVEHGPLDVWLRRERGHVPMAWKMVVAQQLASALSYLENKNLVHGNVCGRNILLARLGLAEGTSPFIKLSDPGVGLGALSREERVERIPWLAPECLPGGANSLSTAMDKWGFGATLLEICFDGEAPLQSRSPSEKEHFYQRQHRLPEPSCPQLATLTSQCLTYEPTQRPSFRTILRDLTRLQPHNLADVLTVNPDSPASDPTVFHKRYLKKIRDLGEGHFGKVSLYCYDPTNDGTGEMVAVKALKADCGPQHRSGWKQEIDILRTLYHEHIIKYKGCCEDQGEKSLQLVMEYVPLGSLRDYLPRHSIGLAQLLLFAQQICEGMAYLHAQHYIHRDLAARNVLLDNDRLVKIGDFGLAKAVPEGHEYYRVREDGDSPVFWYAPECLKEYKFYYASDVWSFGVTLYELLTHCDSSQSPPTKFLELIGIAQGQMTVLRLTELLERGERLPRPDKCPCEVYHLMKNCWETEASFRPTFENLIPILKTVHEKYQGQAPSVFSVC

Row | Compound | TYK2 Degradation (NOMO-1, 10 nM) (TYK2 [1]) | TYK2 Degradation (NOMO-1, 100 nM) (TYK2 [1]) | TYK2 Degradation (MOLT-4, 0.5 μM) (TYK2 [2]) | TYK2 Degradation (MOLT-4, 5 μM) (TYK2 [2])
1 | CNC(=O)c1nnc(Nc2ccc(N3CCN(C(=O)CCCCCCC(=O)N[C@H](C(=O)N4C[C@H](O)C[C@H]4C(=O)N[C@@H](C)c4ccccc4)C(C)(C)C)CC3)cn2)cc1Nc1cccc(-c2ncn(C)n2)c1OC [CDD-169, 6-((5-(4-(8-(((S)-1-((2S,4R)-4-hydroxy-2-(((S)-1-phenylethyl)carbamoyl)pyrrolidin-1-yl)-3,3-dimethyl-1-oxobutan-2-yl)amino)-8-oxooctanoyl)piperazin-1-yl)pyridin-2-yl)amino)-4-((2-methoxy-3-(1-methyl-1H-1,2,4-triazol-3-yl)phenyl)amino)-N-methylpyridazine-3-carboxamide] | C (C: ≤20% TYK2 degradation) | C (C: ≤20% TYK2 degradation) |  | 
2 | CNC(=O)c1cnc(Nc2ccc(N3CCN(C(=O)CCCCCCC(=O)N[C@H](C(=O)N4C[C@H](O)C[C@H]4C(=O)N[C@@H](C)c4ccc(-c5scnc5C)cc4)C(C)(C)C)CC3)cn2)cc1Nc1ccccc1OC [CDD-170, 6-((5-(4-(8-(((S)-1-((2S,4R)-4-hydroxy-2-(((S)-1-(4-(4-methylthiazol-5-yl)phenyl)ethyl)carbamoyl)pyrrolidin-1-yl)-3,3-dimethyl-1-oxobutan-2-yl)amino)-8-oxooctanoyl)piperazin-1-yl)pyridin-2-yl)amino)-4-((2-methoxyphenyl)amino)-N-methylnicotinamide] | B (B: <60% TYK2 degradation, and >20% TYK2 degradation) | A (A: ≥60% TYK2 degradation) |  | 
3 | CNC(=O)c1nnc(Nc2ccc(N3CCN(C(=O)CCCCCCC(=O)N[C@H](C(=O)N4C[C@H](O)C[C@H]4C(=O)NCc4ccc(C#N)cn4)C(C)(C)C)CC3)cn2)cc1Nc1cccc(-c2ncn(C)n2)c1OC [CDD-172, 6-((5-(4-(8-(((S)-1-((2S,4R)-2-(((5-cyanopyridin-2-yl)methyl)carbamoyl)-4-hydroxypyrrolidin-1-yl)-3,3-dimethyl-1-oxobutan-2-yl)amino)-8-oxooctanoyl)piperazin-1-yl)pyridin-2-yl)amino)-4-((2-methoxy-3-(1-methyl-1H-1,2,4-triazol-3-yl)phenyl)amino)-N-methylpyridazine-3-carboxamide] | C (C: ≤20% TYK2 degradation) | C (C: ≤20% TYK2 degradation) |  | 
4 | CNC(=O)c1nnc(Nc2ccc(N3CCN(C(=O)CCCCCCC(=O)N[C@H](C(=O)N4C[C@H](O)C[C@H]4C(=O)N[C@H]4CCCc5c4cc(C#N)n5C)C(C)(C)C)CC3)cn2)cc1Nc1cccc(-c2ncn(C)n2)c1OC [CDD-173, 6-((5-(4-(8-(((S)-1-((2S,4R)-2-(((S)-2-cyano-1-methyl-4,5,6,7-tetrahydro-1H-indol-4-yl)carbamoyl)-4-hydroxypyrrolidin-1-yl)-3,3-dimethyl-1-oxobutan-2-yl)amino)-8-oxooctanoyl)piperazin-1-yl)pyridin-2-yl)amino)-4-((2-methoxy-3-(1-methyl-1H-1,2,4-triazol-3-yl)phenyl)amino)-N-methylpyridazine-3-carboxamide] | C (C: ≤20% TYK2 degradation) | C (C: ≤20% TYK2 degradation) |  | 
5 | CNC(=O)c1nnc(Nc2ccc(N3CCN(C(=O)CCCCCCC(=O)N[C@H](C(=O)N4C[C@H](O)C[C@H]4C(=O)N[C@H]4CCCc5[nH]c(=O)c(C)cc54)C(C)(C)C)CC3)cn2)cc1Nc1cccc(-c2ncn(C)n2)c1OC [CDD-174, 6-((5-(4-(8-(((S)-1-((2S,4R)-4-hydroxy-2-(((S)-3-methyl-2-oxo-1,2,5,6,7,8-hexahydroquinolin-5-yl)carbamoyl)pyrrolidin-1-yl)-3,3-dimethyl-1-oxobutan-2-yl)amino)-8-oxooctanoyl)piperazin-1-yl)pyridin-2-yl)amino)-4-((2-methoxy-3-(1-methyl-1H-1,2,4-triazol-3-yl)phenyl)amino)-N-methylpyridazine-3-carboxamide] | C (C: ≤20% TYK2 degradation) | C (C: ≤20% TYK2 degradation) |  | 
6 | CNC(=O)c1nnc(Nc2ccc(C(=O)NCCCNc3ccc4c(c3)C(=O)N(C3CCC(=O)NC3=O)C4=O)cn2)cc1Nc1cccc(-c2ncn(C)n2)c1OC (stereo not drawn) [CDD-175, 6-((5-((3-((2-(2,6-dioxopiperidin-3-yl)-1,3-dioxoisoindolin-5-yl)amino)propyl)carbamoyl)pyridin-2-yl)amino)-4-((2-methoxy-3-(1-methyl-1H-1,2,4-triazol-3-yl)phenyl)amino)-N-methylpyridazine-3-carboxamide] | A (A: ≥60% TYK2 degradation) | A (A: ≥60% TYK2 degradation) |  | 
7 | CNC(=O)c1nnc(Nc2ccc(C(=O)NCCNc3ccc4c(c3)C(=O)N(C3CCC(=O)NC3=O)C4=O)cn2)cc1Nc1cccc(-c2ncn(C)n2)c1OC (stereo not drawn) [CDD-176, 6-((5-((2-((2-(2,6-dioxopiperidin-3-yl)-1,3-dioxoisoindolin-5-yl)amino)ethyl)carbamoyl)pyridin-2-yl)amino)-4-((2-methoxy-3-(1-methyl-1H-1,2,4-triazol-3-yl)phenyl)amino)-N-methylpyridazine-3-carboxamide] | C (C: ≤20% TYK2 degradation) | C (C: ≤20% TYK2 degradation) |  | 
8 | CNC(=O)c1nnc(NC(=O)CNC(=O)CCCCCCCCCOc2cc(-c3scnc3C)ccc2CNC(=O)[C@@H]2C[C@@H](O)CN2C(=O)[C@@H](NC(=O)C2(F)CC2)C(C)(C)C)cc1Nc1cccc(-c2ncn(C)n2)c1OC [CPD-109, 6-(2-(10-(2-(((2S,4R)-1-((S)-2-(1-Fluorocyclopropane-1-carboxamido)-3,3-dimethylbutanoyl)-4-hydroxypyrrolidine-2-carboxamido)methyl)-5-(4-methylthiazol-5-yl)phenoxy)decanamido)acetamido)-4-((2-methoxy-3-(1-methyl-JH-1,2,4-triazol-3-yl)phenyl)amino)-N-methylpyridazine-3-carboxamide] |  |  | B (B: <60% TYK2 degradation, and >20% TYK2 degradation) | A (A: ≥60% TYK2 degradation)
9 | CNC(=O)c1nnc(Nc2ccc(N3CCN(C(=O)CC(=O)N[C@H](C(=O)N4C[C@H](O)C[C@H]4C(=O)NCc4ccc(-c5scnc5C)cc4)C(C)(C)C)CC3)cn2)cc1Nc1cccc(-c2ncn(C)n2)c1OC [CPD-111, 6-((5-(4-(3-(((S)-1-((2S,4R)-4-Hydroxy-2-((4-(4-methylthiazol-5-yl)benzyl)carbamoyl)pyrrolidin-1-yl)-3,3-dimethyl-1-oxobutan-2-yl)amino)-3-oxopropanoyl)piperazin-1-yl)pyridin-2-yl)amino)-4-((2-methoxy-3-(1-methyl-1H-1,2,4-triazol-3-yl)phenyl)amino)-N-methylpyridazine-3-carboxamide] |  |  | B (B: <60% TYK2 degradation, and >20% TYK2 degradation) | B (B: <60% TYK2 degradation, and >20% TYK2 degradation)

Further lines, results first:

Row | TYK2 Degradation (NOMO-1, 10 nM) (TYK2 [1]) | TYK2 Degradation (NOMO-1, 100 nM) (TYK2 [1]) | TYK2 Degradation (MOLT-4, 0.5 μM) (TYK2 [2]) | TYK2 Degradation (MOLT-4, 5 μM) (TYK2 [2]) | Compound
10 |  |  | C (C: ≤20% TYK2 degradation) | C (C: ≤20% TYK2 degradation) | CNC(=O)c1nnc(NC(=O)CNC(=O)CCCCCCCOc2cc(-c3scnc3C)ccc2CNC(=O)[C@@H]2C[C@@H](O)CN2C(=O)[C@@H](NC(=O)C2(F)CC2)C(C)(C)C)cc1Nc1cccc(-c2ncn(C)n2)c1OC [CPD-107, 6-(2-(8-(2-(((2S,4R)-1-((S)-2-(1-Fluorocyclopropane-1-carboxamido)-3,3-dimethylbutanoyl)-4-hydroxypyrrolidine-2-carboxamido)methyl)-5-(4-methylthiazol-5-yl)phenoxy)octanamido)acetamido)-4-((2-methoxy-3-(1-methyl-1H-1,2,4-triazol-3-yl)phenyl)amino)-N-methylpyridazine-3-carboxamide]
11 |  |  | C (C: ≤20% TYK2 degradation) | C (C: ≤20% TYK2 degradation) | CNC(=O)c1nnc(NC(=O)CNC(=O)CCCCCCCCOc2cc(-c3scnc3C)ccc2CNC(=O)[C@@H]2C[C@@H](O)CN2C(=O)[C@@H](NC(=O)C2(F)CC2)C(C)(C)C)cc1Nc1cccc(-c2ncn(C)n2)c1OC [CPD-108, 6-(2-(9-(2-(((2S,4R)-1-((S)-2-(1-Fluorocyclopropane-1-carboxamido)-3,3-dimethylbutanoyl)-4-hydroxypyrrolidine-2-carboxamido)methyl)-5-(4-methylthiazol-5-yl)phenoxy)nonanamido)acetamido)-4-((2-methoxy-3-(1-methyl-1H-1,2,4-triazol-3-yl)phenyl)amino)-N-methylpyridazine-3-carboxamide]
12 |  |  | A (A: ≥60% TYK2 degradation) | A (A: ≥60% TYK2 degradation) | CNC(=O)c1nnc(NC(=O)CNC(=O)CCCCCCCCCCOc2cc(-c3scnc3C)ccc2CNC(=O)[C@@H]2C[C@@H](O)CN2C(=O)[C@@H](NC(=O)C2(F)CC2)C(C)(C)C)cc1Nc1cccc(-c2ncn(C)n2)c1OC [CPD-110, 6-(2-(11-(2-(((2S,4R)-1-((S)-2-(1-fluorocyclopropane-1-carboxamido)-3,3-dimethylbutanoyl)-4-hydroxypyrrolidine-2-carboxamido)methyl)-5-(4-methylthiazol-5-yl)phenoxy)undecanamido)acetamido)-4-((2-methoxy-3-(1-methyl-1H-1,2,4-triazol-3-yl)phenyl)amino)-N-methylpyridazine-3-carboxamide]
